Experimental data as given in patent publication US4450269A, “Mono-5-substituted-3-chloro-4H-1,2,6-thiadiazin-4-one antifungal agents” (FMC Corporation, priority 1980, dated 1984).

Columns and labels:
Assay in all cases: Spore germination test
Format in all cases: cell-based
Erysiphe polygoni = conditions: EP, 48 hours
Procedure, shortened: (§1)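 Compound in acetone was mixed into water agar at final 40, 10, 2.5 and 1 ppm and poured into quadrant dishes. Quadrants received spore suspension, while Erysiphe polygoni and Uromyces phaseoli spores were brushed on from infected leaves. After 48 h at 24 °C, the percentage of germinated spores was converted to a germination rating.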

Alternaria solani = conditions: AS, 48 hours
Procedure, shortened: as §1

Botrytis cinerea = conditions: BC, 48 hours
Procedure, shortened: as §1

Compound	Spore Germination Rating (Erysiphe polygoni; 1.0 ppm)	Spore Germination Rating (Erysiphe polygoni; 2.5 ppm)	Spore Germination Rating (Erysiphe polygoni; 10 ppm)	Spore Germination Rating (Erysiphe polygoni; 40 ppm)	Spore Germination Rating (Alternaria solani; 1.0 ppm)	Spore Germination Rating (Alternaria solani; 2.5 ppm)	Spore Germination Rating (Alternaria solani; 10 ppm)	Spore Germination Rating (Alternaria solani; 40 ppm)	Spore Germination Rating (Botrytis cinerea; 1.0 ppm)	Spore Germination Rating (Botrytis cinerea; 2.5 ppm)	Spore Germination Rating (Botrytis cinerea; 10 ppm)	Spore Germination Rating (Botrytis cinerea; 40 ppm)
CNC(=O)Nc1ccc(Oc2nsnc(Cl)c2=O)cc1 [Compound 28, 3-chloro-5-[4-(3-methylureido)-phenoxy]-4H--1,2,6-thiadiazin-4-one]	4 (80-100)	4 (80-100)	4 (80-100)	4 (80-100)	4 (80-100)	4 (80-100)	4 (80-100)	4 (80-100)	4 (80-100)	1 (10-40)	0 (0-10)	0 (0-10)
O=C(Nc1ccccc1)Nc1ccc(Oc2nsnc(Cl)c2=O)cc1 [Compound 29, 3-chloro-5-[4-(3-phenylureido)-phenoxy]-4H--1,2,6-thiadiazin-4-one]	4 (80-100)	4 (80-100)	4 (80-100)	1 (10-40)	4 (80-100)	4 (80-100)	4 (80-100)	4 (80-100)	3 (60-80)	3 (60-80)	2 (40-60)	2 (40-60)
O=c1c(Cl)nsnc1Oc1c(Cl)cc(Cl)cc1Cl [Compound 30, 3-chloro-5-(2,4,6-trichlorophenoxy)-4H--1,2,6-thiadiazin-4-one]	1 (10-40)	0 (0-10)	0 (0-10)	0 (0-10)	3 (60-80)	0 (0-10)	0 (0-10)	0 (0-10)	0 (0-10)	0 (0-10)	0 (0-10)	0 (0-10)
O=c1c(Cl)nsnc1Oc1c(Cl)c(Cl)c(Cl)c(Cl)c1Cl [Compound 31, 3-chloro-5-(pentachlorophenoxy)-4H--1,2,6-thiadiazine-4-one]	0 (0-10)	0 (0-10)	1 (10-40)	0 (0-10)	4 (80-100)	1 (10-40)	0 (0-10)	0 (0-10)	1 (10-40)	1 (10-40)	1 (10-40)	0 (0-10)
O=c1c(Cl)nsnc1Oc1cccc2ccccc12 [Compound 32, 3-chloro-5(1-naphthoxy)-4H-1,2,6-thiadiazin-4-one]	2 (40-60)	2 (40-60)	0 (0-10)	0 (0-10)	3 (60-80)	1 (10-40)	0 (0-10)	0 (0-10)	2 (40-60)	0 (0-10)	0 (0-10)	0 (0-10)
O=c1c(Cl)nsnc1Oc1ccccc1Br [Compound 34, 3-chloro-5-(2-bromophenoxy)-4H-1,2,6,-thiadiazin-4-one]	0 (0-10)	2 (40-60)	0 (0-10)	0 (0-10)	4 (80-100)	1 (10-40)	0 (0-10)	0 (0-10)	2 (40-60)	0 (0-10)	0 (0-10)	0 (0-10)
O=C(Nc1ccccc1)Oc1ccc(Oc2nsnc(Cl)c2=O)cc1 [Compound 37, 3-chloro-5-[4-(phenylaminocarbonyloxy)phenoxy]-4H-1,2,6,-thiadiazin-4-one]	4 (80-100)	4 (80-100)	4 (80-100)	3 (60-80)	4 (80-100)	4 (80-100)	4 (80-100)	3 (60-80)	4 (80-100)	4 (80-100)	4 (80-100)	4 (80-100)
O=C(OCc1ccccc1)Oc1ccc(Oc2nsnc(Cl)c2=O)cc1 [Compound 38, 3-chloro-5-[4-(phenylmethoxycarbonyloxy)phenoxyl]-4H-1,2,6-thiadiazin-4-one]	4 (80-100)	4 (80-100)	4 (80-100)	4 (80-100)	4 (80-100)	4 (80-100)	4 (80-100)	4 (80-100)	4 (80-100)	4 (80-100)	4 (80-100)	3 (60-80)
CSc1ccc(Oc2nsnc(Cl)c2=O)cc1 [Compound 39, 3-chloro-5-[(4-methylthio)phenoxy]-4H-1,2,6,-thiadiazin-4-one]	2 (40-60)	1 (10-40)	2 (40-60)	0 (0-10)	4 (80-100)	3 (60-80)	2 (40-60)	0 (0-10)	4 (80-100)	4 (80-100)	4 (80-100)	3 (60-80)
C[S+]([O-])c1ccc(Oc2nsnc(Cl)c2=O)cc1 (stereo not drawn) [Compound 40, 3-chloro-5-[(4-methylsulfinyl)phenoxy]-4H-1,2,6,-thiadiazin-4-one]	4 (80-100)	4 (80-100)	4 (80-100)	1 (10-40)	4 (80-100)	2 (40-60)	1 (10-40)	0 (0-10)	4 (80-100)	4 (80-100)	4 (80-100)	3 (60-80)
